Experimental findings from ChEMBL document CHEMBL5247604, “Discovery of novel hybrids containing clioquinol-1-benzyl-1,2,3,6-tetrahydropyridine as multi-target-directed ligands (MTDLs) against Alzheimer's disease” (Eur J Med Chem, 2022) are described below.

Data set [1] concerns SH-SY5Y. The experiment in a line: Neuroprotective activity in human SH-SY5Y cells assessed as inhibition of okadaic acid-induced mitochondrial membrane potential by measuring increase in red-to-green fluorescence intensity ratio pretreated for 24 hrs followed by okadaic acid addition for 24 hrs by JC-1 dye based fluorescence analysis. The class given is functional, cell-based.

Data set [2] concerns SH-SY5Y. Briefly: Antioxidant activity against okadaic acid-induced ROS generation in human SH-SY5Y cells assessed as reduction in DCF fluorescence intensity at 1 to 10 uM pretreated for 24 hrs followed by okadaic acid addition for 24 hrs by DCFH-DA dye based fluorescence analysis. The class given is functional, cell-based. The settings on record: dose 1-10 µM.
Data set [3] deals with SH-SY5Y. The experiment in a line: Antioxidant activity against okadaic acid-induced ROS generation in human SH-SY5Y cells assessed as reduction in DCF fluorescence intensity pretreated for 24 hrs followed by okadaic acid addition for 24 hrs by DCFH-DA dye based fluorescence analysis. The class given is functional, cell-based.
For data set [4], the system named is SH-SY5Y. Briefly: Antialzheimer activity in human SH-SY5Y cells assessed as inhibition of GA-induced tau hyperphosphorylation at Ser199 residue at 0.1 to 3 uM incubated for 24 hrs by ELISA. The class given is functional, cell-based. The settings on record: dose 0.1-3 µM.
Data set [5] concerns SH-SY5Y. Briefly: Antialzheimer activity in human SH-SY5Y cells assessed as inhibition of GA-induced tau hyperphosphorylation at Ser396 residue at 0.1 to 3 uM incubated for 24 hrs by ELISA. The following applies: dose 0.1-3 µM. The class given is functional, cell-based.
In data set [6] the test system is SH-SY5Y. Briefly: Antialzheimer activity in human SH-SY5Y cells assessed as inhibition of GA-induced tau hyperphosphorylation at Ser199 residue incubated for 24 hrs by ELISA. It counts as functional, cell-based.
The test system of data set [7] is SH-SY5Y. Briefly: Antialzheimer activity in human SH-SY5Y cells assessed as inhibition of GA-induced tau hyperphosphorylation at Ser396 residue incubated for 24 hrs by ELISA. It counts as functional, cell-based.
For data set [8], the system named is Mus musculus. The experiment in a line: Antialzheimer activity in human oligo-merized amyloid beta (1 to 42 residues)-induced cognitive impairment C57BL/6 mouse model assessed as decrease in escape latency at 5 mg/kg,ip qd for 10 days by Morris water maze test relative to control. The settings on record: time 10.0 day. It counts as functional, organism-based.

The test system of data set [9] is Mus musculus. The experiment in a line: Antialzheimer activity in human oligo-merized amyloid beta (1 to 42 residues)-induced cognitive impairment C57BL/6 mouse model assessed as increase in percentage of time spent in the target quadrant at 5 mg/kg,ip qd for 10 days by Morris water maze test relative to control. It counts as functional, organism-based. The settings on record: time 10.0 day.

Data set [10] deals with Mus musculus. Briefly: Antialzheimer activity in human oligo-merized amyloid beta (1 to 42 residues)-induced cognitive impairment C57BL/6 mouse model assessed as increase duration in novel arm at 5 mg/kg,ip qd for 10 days by Y-maze test relative to control. The settings on record: time 10.0 day. The class given is functional, organism-based.
In data set [11] the test system is Mus musculus. Briefly: Antialzheimer activity in human oligo-merized amyloid beta (1 to 42 residues)-induced cognitive impairment C57BL/6 mouse model assessed as decrease IL-1beta level in cortex at 5 mg/kg,ip qd for 10 days by ELISA. The settings on record: time 10.0 day. The class given is functional, organism-based.
Data set [12] has as its system Mus musculus. Briefly: Antialzheimer activity in human oligo-merized amyloid beta (1 to 42 residues)-induced cognitive impairment C57BL/6 mouse model assessed as decrease TNF-alpha level in cortex at 5 mg/kg,ip qd for 10 days by ELISA. It counts as functional, organism-based. The settings on record: time 10.0 day.
Data set [13] in a line: in vivo. The settings on record: ICR, mouse, po.
Description: Acute toxicity in ICR mouse assessed as lethality at 21.30 to 52 mg/kg, po and measured upto 14 days
The target of data set [14] is Acetylcholinesterase (Electrophorus electricus, UniProt O42275). The experiment in a line: Inhibition of electric eel AChE using acetylthiocholine iodide as substrate preincubated for 15 mins followed by substrate addition by Ellman's method.
Acetylcholinesterase, sequence (O42275 whole entry): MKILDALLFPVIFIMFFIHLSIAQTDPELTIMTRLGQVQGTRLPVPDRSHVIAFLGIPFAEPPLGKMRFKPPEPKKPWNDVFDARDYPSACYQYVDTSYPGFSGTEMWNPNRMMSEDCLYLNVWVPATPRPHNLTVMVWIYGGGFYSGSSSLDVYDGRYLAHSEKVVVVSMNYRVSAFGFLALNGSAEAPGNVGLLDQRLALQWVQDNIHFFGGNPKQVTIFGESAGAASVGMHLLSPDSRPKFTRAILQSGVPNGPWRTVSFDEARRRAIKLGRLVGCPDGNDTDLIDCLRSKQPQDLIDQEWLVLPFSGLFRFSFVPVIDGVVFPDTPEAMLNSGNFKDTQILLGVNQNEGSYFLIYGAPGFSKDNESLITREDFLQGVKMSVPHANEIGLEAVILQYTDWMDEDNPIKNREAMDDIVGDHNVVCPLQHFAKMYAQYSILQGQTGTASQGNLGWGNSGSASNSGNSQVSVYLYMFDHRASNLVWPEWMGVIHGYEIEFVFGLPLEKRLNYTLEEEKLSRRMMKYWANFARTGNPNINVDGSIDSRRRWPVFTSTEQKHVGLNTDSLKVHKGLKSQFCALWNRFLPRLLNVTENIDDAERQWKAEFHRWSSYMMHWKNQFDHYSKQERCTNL
Data set [15] deals with T1, Amyloid-beta precursor protein (Homo sapiens, UniProt P05067). The experiment in a line: Inhibition of Cu2+ induced amyloid beta (1 to 42 ) (unknown origin) aggregation incubated for 24 hr by Thioflavin T based fluorometric assay.
T1 sequence (P05067 whole entry): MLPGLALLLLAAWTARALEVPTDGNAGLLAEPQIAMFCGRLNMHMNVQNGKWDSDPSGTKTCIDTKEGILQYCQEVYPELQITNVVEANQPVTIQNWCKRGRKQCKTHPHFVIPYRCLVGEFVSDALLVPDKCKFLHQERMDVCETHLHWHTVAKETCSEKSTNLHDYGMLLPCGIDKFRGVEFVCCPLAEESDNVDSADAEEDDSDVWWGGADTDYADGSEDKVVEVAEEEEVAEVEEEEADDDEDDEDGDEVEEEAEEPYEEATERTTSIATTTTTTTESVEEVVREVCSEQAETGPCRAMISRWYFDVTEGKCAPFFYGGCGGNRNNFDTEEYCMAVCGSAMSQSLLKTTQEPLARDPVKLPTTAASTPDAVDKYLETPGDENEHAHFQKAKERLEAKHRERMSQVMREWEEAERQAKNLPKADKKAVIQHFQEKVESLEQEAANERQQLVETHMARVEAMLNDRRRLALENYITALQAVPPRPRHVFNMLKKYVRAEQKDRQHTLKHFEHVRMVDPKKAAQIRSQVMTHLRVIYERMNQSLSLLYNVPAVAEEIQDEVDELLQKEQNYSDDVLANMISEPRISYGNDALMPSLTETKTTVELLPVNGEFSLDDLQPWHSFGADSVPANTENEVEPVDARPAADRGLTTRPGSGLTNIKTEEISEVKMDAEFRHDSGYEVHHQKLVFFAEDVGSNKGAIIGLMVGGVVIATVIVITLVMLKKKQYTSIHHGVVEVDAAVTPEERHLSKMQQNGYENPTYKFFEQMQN
Data set [16] has as its target T1, Amyloid-beta precursor protein. The experiment in a line: Inhibition of Cu2+ induced amyloid beta (1 to 42 ) (unknown origin) aggregation assessed as reduction in fibrils incubated for 24 hr by TEM analysis.
Data set [17] shares this target. Briefly: Inhibition of amyloid beta (1 to 42 ) (unknown origin) self aggregation incubated for 24 hr by Thioflavin T based fluorometric assay.
Data set [18] can be described thus: Metal chelating activity assessed as Cu2+-compound complex formation by measuring red shift in presence of CuSO4 at 40 uM incubated for 30 mins by UV-Visible spectrophotometry.
The nature of data set [19]: Metal chelating activity assessed as Fe2+-compound complex formation by measuring red shift in presence of FeSO4 at 40 uM incubated for 30 mins by UV-Visible spectrophotometry.
Data set [20] in a line: Metal chelating activity assessed as Fe3+-compound complex formation by measuring red shift in presence of FeCl3 at 40 uM incubated for 30 mins by UV-Visible spectrophotometry.
Data set [21] can be described thus: Metal chelating activity assessed as Zn2+-compound complex formation by measuring red shift in presence of ZnCl2 at 40 uM incubated for 30 mins by UV-Visible spectrophotometry.
A short description of data set [22]: Metal chelating activity assessed as Al3+-compound complex formation by measuring blue shift in presence of AlCl3 at 40 uM incubated for 30 mins by UV-Visible spectrophotometry.

Active and inactive are the calls of the source. The rule behind the calls is not given here.

On to `COc1cc2c(cc1OC)C(=O)C(CC1CCN(Cc3ccccc3)CC1)C2` (configuration not stated) [DONEPEZIL], for which the IC50 is 326000 nM in data set [1], 202000 nM in [3], 35000 nM in [6] and 155000 nM in data set [7]. For the same molecule, the result in data set [2], in data set [4], in data set [5], in data set [8], in [9] and in data set [10] was Active. For the same molecule, the result in data set [11] and in data set [12] was Active. This molecule also returned an LD50 at 336 h in data set [13] of 28.1 mg/kg. The molecule `Oc1cccc2ccc(/C=C/C3=CCN(Cc4ccccc4)CC3)nc12` returned an IC50 in data set [14] of 1110 nM. On the same count and under the same terms, the value for `Oc1cccc2ccc(/C=C/C3=CCN(Cc4ccc(F)cc4)CC3)nc12` was 1660 nM; that for `Oc1cccc2ccc(/C=C/C3=CCN(Cc4ccc(C(F)(F)F)cc4)CC3)nc12` was 320 nM.

As to `Oc1cccc2ccc(/C=C/C3=CCN(Cc4ccccc4Br)CC3)nc12`, in data set [14], the IC50 came to 490 nM. Still for that read-out and setting: the value for `Oc1c(Cl)cc(Cl)c2ccc(/C=C/C3=CCN(Cc4ccccc4Cl)CC3)nc12` was 410 nM. Still for that read-out and setting: then `Oc1cccc2ccc(/C=C/C3=CCN(Cc4cccc(Cl)c4)CC3)nc12`, with 750 nM; and `Oc1c(Cl)cc(Cl)c2ccc(/C=C/C3=CCN(Cc4ccc(F)cc4)CC3)nc12`, with 270 nM. Turning to `Oc1c(I)cc(Cl)c2cccnc12`, the inhibition result in [15] and in data set [16] was “Active” each time. Also, the inhibition entry in [17] was “inactive”.

As for `Oc1cccc2ccc(/C=C/C3=CCN(Cc4ccccc4F)CC3)nc12`, the IC50 in data set [14] was determined as 570 nM. In [14], `Cc1cccc(CN2CC=C(/C=C/c3ccc4c(Cl)cc(Cl)c(O)c4n3)CC2)c1` had an IC50 of 250 nM. In addition, the outcome in data set [18], in data set [19] and in [22] was Active. In addition, the outcome in [20] and in data set [21] was inactive. Regarding `Oc1cccc2ccc(/C=C/C3=CCN(Cc4ccc(Br)cc4)CC3)nc12`, the IC50 in data set [14] was 260 nM. On the same count and under the same terms, the value for `Oc1c(Cl)cc(Cl)c2ccc(/C=C/C3=CCN(Cc4ccccc4Br)CC3)nc12` was 540 nM. `Oc1cccc2ccc(/C=C/C3=CCN(Cc4ccc(Cl)cc4)CC3)nc12` showed an IC50 in [14] of 3050 nM. Same read-out and setting: the value for `Oc1c(Cl)cc(Cl)c2ccc(/C=C/C3=CCN(Cc4cccc(C(F)(F)F)c4)CC3)nc12` was 700 nM; that for `Oc1c(Cl)cc(Cl)c2ccc(/C=C/C3=CCN(Cc4cccc(Cl)c4)CC3)nc12` was 330 nM; that for `Oc1c(Cl)cc(Cl)c2ccc(/C=C/C3=CCN(Cc4cccc(Br)c4)CC3)nc12` was 320 nM.

In [14], `Oc1c(Cl)cc(Cl)c2ccc(/C=C/C3=CCN(Cc4ccc(Br)cc4)CC3)nc12` registered an IC50 of 640 nM. Same read-out and setting: the value for `Oc1cccc2ccc(/C=C/C3=CCN(Cc4cccc(F)c4)CC3)nc12` was 720 nM.

In turn, `Oc1c(Cl)cc(Cl)c2ccc(/C=C/C3=CCN(Cc4ccc(C(F)(F)F)cc4)CC3)nc12` gave an IC50 in data set [14] of 280 nM. Molecule `Oc1c(Cl)cc(Cl)c2ccc(/C=C/C3=CCN(Cc4cccc(F)c4)CC3)nc12` registered an IC50 in data set [14] of 520 nM. The same measure, in the same setting: the value for `Oc1cccc2ccc(/C=C/C3=CCN(Cc4cccc(C(F)(F)F)c4)CC3)nc12` was 550 nM; that for `Cc1ccccc1CN1CC=C(/C=C/c2ccc3c(Cl)cc(Cl)c(O)c3n2)CC1` was 560 nM.

Turning to `Cc1ccccc1CN1CC=C(/C=C/c2ccc3cccc(O)c3n2)CC1`, half-maximal inhibition in data set [14] (IC50) was put at 400 nM. Consider `Cc1ccc(CN2CC=C(/C=C/c3ccc4cccc(O)c4n3)CC2)cc1`, for which half-maximal inhibition in data set [14] (IC50) required 260 nM.

`Oc1c(Cl)cc(Cl)c2ccc(/C=C/C3=CCN(Cc4ccc(Cl)cc4)CC3)nc12` gave an IC50 in [14] of 620 nM. The same measure, in the same setting: then `Oc1cccc2ccc(/C=C/C3=CCN(Cc4ccccc4Cl)CC3)nc12`, with 1290 nM. Consider `Oc1c(Cl)cc(Cl)c2ccc(/C=C/C3=CCN(Cc4ccccc4)CC3)nc12`, for which it took 2310 nM to reach half-maximal inhibition in [14] (IC50).

`Oc1c(Cl)cc(Cl)c2ccc(/C=C/C3=CCN(Cc4ccccc4F)CC3)nc12` yielded an IC50 in data set [14] of 290 nM.

In turn, `Oc1c(Cl)cc(Cl)c2ccc(/C=C/C3=CCN(Cc4ccccc4C(F)(F)F)CC3)nc12` displayed an IC50 in data set [14] of 340 nM. The same measure, in the same setting: the value for `Cc1cccc(CN2CC=C(/C=C/c3ccc4cccc(O)c4n3)CC2)c1` was 430 nM; that for `Cc1ccc(CN2CC=C(/C=C/c3ccc4c(Cl)cc(Cl)c(O)c4n3)CC2)cc1` was 540 nM. As to `Oc1cccc2ccc(/C=C/C3=CCN(Cc4cccc(Br)c4)CC3)nc12`, in data set [14], the IC50 came out at 1530 nM.
